In ChEMBL document CHEMBL1201861, “Genomics of Drug Sensitity in Cancer screening data, Wellcome Trust Sanger Institute”:

How the values were obtained:
Type in all cases: functional, cell-based
DOK = test: cells; details: Homo sapiens;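 note: cell viability assay read-out, values reflect inhibition of cell growth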
Description: SANGER: Inhibition of human DOK cell growth in a cell viability assay.

Daoy = test: cells; details: Homo sapiens;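 note: daoy cell growth inhibition, read out as cell viability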
Description: SANGER: Inhibition of human Daoy cell growth in a cell viability assay.

Detroit 562 = test: cells; details: Homo sapiens;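 note: growth inhibition of human Detroit 562 cells, read out by a cell viability assay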
Description: SANGER: Inhibition of human Detroit562 cell growth in a cell viability assay.

EFO-21 = test: cells; details: Homo sapiens;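 note: growth inhibition of EFO-21 cells measured with a viability assay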
Description: SANGER: Inhibition of human EFO-21 cell growth in a cell viability assay.

HMV-2 cell line = test: cells; details: Homo sapiens;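 note: growth inhibition of HMV-II cells, read out with a cell viability assay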
Description: SANGER: Inhibition of human HMV-II cell growth in a cell viability assay.

HN = test: cells; details: Homo sapiens
Description: SANGER: Inhibition of human HN cell growth in a cell viability assay.

HSC-2 = test: cells; details: Homo sapiens;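 note: growth inhibition of human HSC-2 cells, read out by a cell viability assay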
Description: SANGER: Inhibition of human HSC-2 cell growth in a cell viability assay.

HT-29 = test: cells; details: Homo sapiens;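 note: growth inhibition of human HT-29 cells, read out by a cell viability assay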
Description: SANGER: Inhibition of human HT-29 cell growth in a cell viability assay.

Huh-7 = test: cells; details: Homo sapiens;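 note: HuH-7 cell growth inhibition, read out with a cell viability assay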
Description: SANGER: Inhibition of human HuH-7 cell growth in a cell viability assay.

J82 = test: cells; details: Homo sapiens;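 note: growth inhibition of J82 cells, read out with a cell viability assay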
Description: SANGER: Inhibition of human J82 cell growth in a cell viability assay.

KOSC-2 = test: cells; details: Homo sapiens;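 note: growth inhibition of KOSC-2 cells, read out by a cell viability assay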
Description: SANGER: Inhibition of human KOSC-2 cell growth in a cell viability assay.

KP-4 = test: cells; details: Homo sapiens;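 note: human KP-4 cells, with growth inhibition read out through a cell viability assay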
Description: SANGER: Inhibition of human KP-4 cell growth in a cell viability assay.

LCLC-97TM1 = test: cells; details: Homo sapiens;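 note: cell viability assay measuring growth inhibition of human LCLC-97TM1 cells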
Description: SANGER: Inhibition of human LCLC-97TM1 cell growth in a cell viability assay.

LN-405 = test: cells; details: Homo sapiens
Description: SANGER: Inhibition of human LN-405 cell growth in a cell viability assay.

LoVo = test: cells; details: Homo sapiens;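 note: growth inhibition of human LoVo cells, read out with a cell viability assay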
Description: SANGER: Inhibition of human LoVo cell growth in a cell viability assay.

MCF7 = test: cells; details: Homo sapiens;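 note: growth inhibition of human MCF7 cells, read out with a cell viability assay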
Description: SANGER: Inhibition of human MCF7 cell growth in a cell viability assay.

MDA-MB-453 = test: cells; details: Homo sapiens
Description: SANGER: Inhibition of human MDA-MB-453 cell growth in a cell viability assay.

ME-180 = test: cells; details: Homo sapiens;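 note: cell viability assay measuring growth inhibition of ME-180 cells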
Description: SANGER: Inhibition of human ME-180 cell growth in a cell viability assay.

NCI-H1573 = test: cells; details: Homo sapiens;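 note: growth inhibition of NCI-H1573 cells, read out with a cell viability assay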
Description: SANGER: Inhibition of human NCI-H1573 cell growth in a cell viability assay.

NCI-H1755 = test: cells; details: Homo sapiens;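 note: cell viability readout used to measure growth inhibition of NCI-H1755 cells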
Description: SANGER: Inhibition of human NCI-H1755 cell growth in a cell viability assay.

NCI-H2087 = test: cells; details: Homo sapiens;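 note: growth inhibition determined with a cell viability readout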
Description: SANGER: Inhibition of human NCI-H2087 cell growth in a cell viability assay.

NCI-H28 = test: cells; details: Homo sapiens;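 note: growth inhibition of human NCI-H28 cells, read out as cell viability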
Description: SANGER: Inhibition of human NCI-H28 cell growth in a cell viability assay.

NCI-H358 = test: cells; details: Homo sapiens;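 note: growth inhibition of NCI-H358 human cells, read out with a cell viability assay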
Description: SANGER: Inhibition of human NCI-H358 cell growth in a cell viability assay.

NCI-H650 = test: cells; details: Homo sapiens;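 note: growth inhibition of NCI-H650 cells, read out by a viability assay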
Description: SANGER: Inhibition of human NCI-H650 cell growth in a cell viability assay.

NCI-H810 = test: cells; details: Homo sapiens;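 note: IC50 reflects inhibition of cancer cell line growth, read out with a cell viability assay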
Description: SANGER: Inhibition of human NCI-H810 cell growth in a cell viability assay.

OAW-28 = test: cells; details: Homo sapiens;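 note: growth inhibition of OAW-28 cells, read out with a cell viability assay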
Description: SANGER: Inhibition of human OAW-28 cell growth in a cell viability assay.

Panc1005 = test: cells; details: Homo sapiens;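 note: growth inhibition of human PANC-10-05 cells, measured by a cell viability assay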
Description: SANGER: Inhibition of human PANC-10-05 cell growth in a cell viability assay.

RCM-1 = test: cells; details: Homo sapiens;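 note: growth inhibition of the RCM-1 line, determined with a cell viability readout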
Description: SANGER: Inhibition of human RCM-1 cell growth in a cell viability assay.

RD = test: cells; details: Homo sapiens
Description: SANGER: Inhibition of human RD cell growth in a cell viability assay.

RERF-LC-MS = test: cells; details: Homo sapiens;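 note: growth inhibition of human RERF-LC-MS cells, read out by a cell viability assay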
Description: SANGER: Inhibition of human RERF-LC-MS cell growth in a cell viability assay.

SK-LU-1 = test: cells; details: Homo sapiens;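 note: cell viability assay measuring growth inhibition of human SK-LU-1 cells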
Description: SANGER: Inhibition of human SK-LU-1 cell growth in a cell viability assay.

SN12C = test: cells; details: Homo sapiens;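 note: growth inhibition of human SN12C cells, measured by a cell viability assay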
Description: SANGER: Inhibition of human SN12C cell growth in a cell viability assay.

SNU-387 = test: cells; details: Homo sapiens
Description: SANGER: Inhibition of human SNU-387 cell growth in a cell viability assay.

SW1417 = test: cells; details: Homo sapiens;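 note: growth inhibition of human SW1417 cells, read out with a cell viability assay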
Description: SANGER: Inhibition of human SW1417 cell growth in a cell viability assay.

SW1463 = test: cells; details: Homo sapiens;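 note: growth inhibition of SW1463 cells, determined with a cell viability assay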
Description: SANGER: Inhibition of human SW1463 cell growth in a cell viability assay.

SW1573 = test: cells; details: Homo sapiens;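 note: growth inhibition of SW1573 cells, read out with a cell viability assay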
Description: SANGER: Inhibition of human SW1573 cell growth in a cell viability assay.

SW1710 = test: cells; details: Homo sapiens;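 note: growth inhibition of SW1710 cells, determined with a cell viability assay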
Description: SANGER: Inhibition of human SW1710 cell growth in a cell viability assay.

ACHN = test: cells; details: Homo sapiens;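 note: cell viability read-out used to gauge how strongly growth of human ACHN cells is suppressed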
Description: SANGER: Inhibition of human ACHN cell growth in a cell viability assay.

BFTC-909 = test: cells; details: Homo sapiens
Description: SANGER: Inhibition of human BFTC-909 cell growth in a cell viability assay.

CAL-39 = test: cells; details: Homo sapiens;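 note: cell viability assay measuring growth inhibition of CAL-39 cells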
Description: SANGER: Inhibition of human CAL-39 cell growth in a cell viability assay.

CAL-51 = test: cells; details: Homo sapiens;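 note: human CAL-51 cell line, growth inhibition read out via a cell viability assay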
Description: SANGER: Inhibition of human CAL-51 cell growth in a cell viability assay.

CAL-72 = test: cells; details: Homo sapiens;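 note: cell viability assay measuring inhibition of proliferation in the CAL-72 cell line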
Description: SANGER: Inhibition of human CAL-72 cell growth in a cell viability assay.

YAPC = test: cells; details: Homo sapiens;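 note: growth inhibition of YAPC cells, measured with a cell viability assay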
Description: SANGER: Inhibition of human YAPC cell growth in a cell viability assay.

CAPAN-1 = test: cells; details: Homo sapiens;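 note: growth suppression of CAPAN-1 cells, read out by a cell viability assay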
Description: SANGER: Inhibition of human CAPAN-1 cell growth in a cell viability assay.

COLO-678 = test: cells; details: Homo sapiens
Description: SANGER: Inhibition of human COLO-678 cell growth in a cell viability assay.

COR-L279 = test: SANGER: Inhibition of human COR-L279 cell growth in a cell viability assay.; details: Homo sapiens, COR-L279
HCT-15 = test: cells; details: Homo sapiens;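 note: cell viability readout, IC50 reflecting suppression of HCT-15 cell growth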
Description: SANGER: Inhibition of human HCT-15 cell growth in a cell viability assay.

23132-87 = test: cells; details: Homo sapiens
Description: SANGER: Inhibition of human 23132-87 cell growth in a cell viability assay.

For `O=C(NCCCNc1nc(Nc2cccc(NC(=O)N3CCCC3)c2)ncc1I)c1cccs1` [BX-795], the IC50 (DOK) was 4.36 µM, the IC50 (Daoy) was greater than 5 µM and the IC50 (Detroit 562) was 3.89 µM. The IC50 (EFO-21) was greater than 5 µM, the IC50 (HMV-2 cell line) was greater than 5 µM and the IC50 (HN) was 2.12 µM. For the same compound, the IC50 (HSC-2) was greater than 5 µM, the IC50 (HT-29) was greater than 5 µM and the IC50 (Huh-7) was 4.82 µM. The IC50 (J82) was greater than 5 µM, the IC50 (KOSC-2) was 3.07 µM and the IC50 (KP-4) was greater than 5 µM. For the same compound, the IC50 (LCLC-97TM1) was greater than 5 µM, the IC50 (LN-405) was greater than 5 µM and the IC50 (LoVo) was greater than 5 µM. For the same compound, the IC50 (MCF7) was greater than 5 µM, the IC50 (MDA-MB-453) was greater than 5 µM and the IC50 (ME-180) was 3.39 µM. For the same compound, the IC50 (NCI-H1573) was greater than 5 µM, the IC50 (NCI-H1755) was 2.54 µM and the IC50 (NCI-H2087) was greater than 5 µM. For the same compound, the IC50 (NCI-H28) was 2.85 µM, the IC50 (NCI-H358) was greater than 5 µM and the IC50 (NCI-H650) was 3.4 µM. For the same compound, the IC50 (NCI-H810) was 3.9 µM, the IC50 (OAW-28) was greater than 5 µM and the IC50 (Panc1005) was greater than 5 µM. The IC50 (RCM-1) was greater than 5 µM, the IC50 (RD) was greater than 5 µM and the IC50 (RERF-LC-MS) was greater than 5 µM. It also gave an IC50 (SK-LU-1) greater than 5 µM, an IC50 (SN12C) greater than 5 µM and an IC50 (SNU-387) of 3.81 µM. For the same compound, the IC50 (SW1417) was greater than 5 µM, the IC50 (SW1463) was greater than 5 µM and the IC50 (SW1573) was greater than 5 µM. For the same compound, the IC50 (SW1710) was 2.29 µM, the IC50 (ACHN) was greater than 5 µM and the IC50 (BFTC-909) was 4.65 µM. It also gave an IC50 (CAL-39) of 4.31 µM, an IC50 (CAL-51) of 1.22 µM and an IC50 (CAL-72) of 4.22 µM. For the same compound, the IC50 (YAPC) was greater than 5 µM, the IC50 (CAPAN-1) was greater than 5 µM and the IC50 (COLO-678) was greater than 5 µM.
In the case of `CO[C@@H]1[C@H](N(C)C(=O)c2ccccc2)C[C@H]2O[C@]1(C)n1c3ccccc3c3c4c(c5c6ccccc6n2c5c31)C(=O)NC4` [MIDOSTAURIN], the IC50 (COR-L279) is reported as greater than 0.512 µM, the IC50 (HCT-15) is reported as 0.334 µM and the IC50 (HMV-2 cell line) is reported as greater than 0.512 µM. For the same compound, the IC50 (J82) was greater than 0.512 µM, the IC50 (KOSC-2) was greater than 0.512 µM and the IC50 (LCLC-97TM1) was greater than 0.512 µM. The IC50 (MCF7) was 0.333 µM, the IC50 (NCI-H1755) was 0.0627 µM and the IC50 (NCI-H810) was 0.21 µM. For the same compound, the IC50 (SNU-387) was 0.139 µM, the IC50 (23132-87) was greater than 0.512 µM and the IC50 (ACHN) was 0.331 µM.
